In PMC10783034, “Pharmacokinetic and pharmacodynamic evaluation of the atypical tetracyclines chelocardin and amidochelocardin in murine infection models” (Microbiology Spectrum, 2023):
Values after ≈ are worked out from the molar mass of the structure shown. Values joined by “and” are separate entries in the source; they are usually repeats but may differ in a detail not shown here. Identical values can stand only once. “Also recorded” adds a separate entry of the source.

Experiments:
[1] = tested on: K. pneumoniae ATCC 43816; parameters: method as in PMID 32962088; conditions: cited from earlier work
[2] = tested on: E. aerogenes DSM-30053; assay: MIC determination; type: cell-based; conditions: MHB medium
Experimental: (§1) The assay was conducted as described previously ([54]) with the following modifications. The MIC was tested against the K. pneumoniae strain ATCC 43816 in an MHB (not cation-adjusted) medium. CHD and CDCHD were tested in concentrations ranging from 0.078 to 10 µg/mL. Moreover, the MIC was determined for the following strains: K. pneumoniae DSM-30104, E. faecium DSM-20477, S. aureus DSM-346, P. aeruginosa DSM-11128, A. baumannii DSM-30008, E. aerogenes DSM-30053, E. coli ATCC 25922, and E. coli C175-94. All strains were grown in MHB medium, except for E. faecium, which was grown in TSB. CHD, epi-CDH, and CDCHD were tested in concentrations ranging from 0.125 to 64 µg/mL as described previously ([19]).

[3] = tested on: E. coli C175-94; assay: MIC determination; type: cell-based; conditions: MHB medium
Experimental: as §1

[4] = tested on: K. pneumoniae DSM-30104; assay: MIC determination; type: cell-based; conditions: MHB medium
Experimental: as §1

[5] = tested on: E. coli ATCC 25922; assay: MIC determination; type: cell-based; conditions: MHB medium
Experimental: as §1

[6] = tested on: S. aureus DSM-346; assay: MIC determination; type: cell-based; conditions: MHB medium
Experimental: as §1

[7] = tested on: P. aeruginosa DSM-11128; assay: MIC determination; type: cell-based; conditions: MHB medium
Experimental: as §1

[8] = tested on: A. baumannii DSM-30008; assay: MIC determination; type: cell-based; conditions: MHB medium
Experimental: as §1

[9] = Pharmacokinetic studies in uninfected CD-1 mice (plasma and urine levels); type: in vivo; conditions: for epimerization in plasma and urine in vivo / urine concentrations at time points > 24 hours / plasma levels at 30 mg/kg IV compared with 15 mg/kg IV / urine levels at 30 mg/kg IV compared with 15 mg/kg IV: mice; for F (bioavailability) / AUC0-t / C0 / Cl/F_obs / MRT / Vz/F_obs / t1/2 (plasma half-life) / Tmax / Cmax: CD-1 mice
Experimental: (§2) CHD and CDCHD were administered in single PK studies at the doses of 15 mg/kg and 30 mg/kg IV, at 15 mg/kg SC, and 15 mg/kg PO. Up to 25 µL of blood was collected from the lateral tail vein (n = 3 per time point) and time points t = 0.5, 1, 2, 4, and 8 hours. For 15 mg/kg IV- and PO-administered compounds, blood was also collected at time points t = 24 and 48 hours. For IV- and SC-administered compounds, blood was also collected at t = 0.25 hours. At t = 24 hours (15 mg/kg SC, 30 mg/kg IV) or 72 hours (15 mg/kg IV and PO), animals were euthanized to collect blood. At every blood collection, time point spontaneous urine was collected as well. Whole blood was collected into Eppendorf tubes coated with 0.5 M EDTA and immediately spun down at 15,870× g for 10 min at 4°C. Then, plasma was transferred into a new Eppendorf tube and stored at −80°C until analysis.
First, a calibration curve was prepared by spiking different concentrations of CHD and CDCHD into mouse plasma or mouse urine (matrix for mouse PK or PD samples) from CD-1 mice. Caffeine was used as an internal standard. In addition, quality control samples (QCs) were prepared for CHD and CDCHD in plasma and urine. The following extraction procedures were used: 7.5 µL of a plasma or urine sample (calibration samples, QCs, PK or PD samples) was extracted with 37.5 µL of a mixture of methanol/acetonitrile (2:1) containing 12.5 ng/mL of glipizide as an internal standard for 5 min at 2,000 rpm on an Eppendorf MixMate® vortex mixer. Then samples were spun down at 15,870× g for 10 min. Supernatants were transferred to standard HPLC glass vials.
Samples were analyzed using an Agilent 1290 HPLC system coupled to an AB Sciex QTrap 6500 mass spectrometer. LC conditions were as follows: column: Agilent Zorbax Eclipse Plus C18, 50 × 2.1 mm, 1.8 µm; temperature: 30°C; injection volume: 5 µL per sample; flow rate: 700 µL/min. Samples were run under the following conditions. Solvents for acidic conditions: A: 100% water +0.1% formic acid; solvent B: 100% acetonitrile +0.1% formic acid. The gradient for CDCHD was as follows: 99% A at 0 min, 99% A until 1 min, 99%–50% A from 1 to 2.4 min, 50%–35% A from 2.4 to 2.7 min, 35–0% A from 2.7 until 4.5 min, 0% A until 6 min, 0-99% from 6 to 6.2 min, 99% A until 8.0 min. The gradient for CHD was as follows: 99%–90% A from 0 to 1 min, 90%–55% A from 1 to 2.3 min, 50%–40% A from 2.3 to 2.5 min, 40%–0% A from 2.5 to 4.5 min, 0% A until 6 min, 0%–99% A from 6 to 6.2 min, 99% A until 8.0 min. Mass transitions are depicted in Table S3. Peaks of PK and PD samples were quantified using the calibration curve. The accuracy of the calibration curve was determined using QCs independently prepared on different days. PK parameters were determined using a non-compartmental analysis with PKSolver ([55]).

[10] = Histopathological analysis of kidneys and livers after high-dose IV administration; type: in vivo, mice; conditions: 30 mg/kg IV; for histopathological examination of liver / kidney tissue discoloration: 24 hours after treatment; for overall acute toxicity assessment: high-dose groups
Experimental: The sustained high urine concentrations observed for CDCHD at 15 mg/kg IV raised the concern that accumulation might occur. We therefore performed histopathological analysis of livers and kidneys. A dose of 30 mg/kg of CHD and CDCHD was administered intravenously, and livers and kidneys were examined 24 hours after treatment to investigate signs of acute toxicity.
as §2
Approximately 3 µm thick sections of formalin-fixed, paraffin-embedded samples of liver and kidney were analyzed blinded, and randomized to the experimental groups by a trained veterinarian. […] Kidneys were analyzed for changes in the glomeruli (not found), tubular dilation (1 = mild or up to 20% of tubuli affected, 2 = moderate or 25-40% of tubuli affected, 3 = severe 50% or more), and inflammatory infiltrate in the pelvis (1 = mild, 2 = moderate, 3 = severe).

[11] = plasma, 15 mg/kg IV, for CHD active CHD only

| Compound | minimal bactericidal concentration (MBC) [1] | MIC [2] | MIC [3] | MIC [4] | MIC [5] | MIC [6] | MIC [7] | MIC [8] | epimerization in plasma and urine in vivo ([9]; 15 mg/kg IV) | urine concentrations at time points > 24 hours ([9]; 15 mg/kg IV) | F (bioavailability) ([9]; 15 mg/kg PO, 15 mg/kg) | F (bioavailability) ([9]; 15 mg/kg SC, 15 mg/kg) | AUC0-t ([9]; plasma, 15 mg/kg IV) | C0 ([9]; plasma, 15 mg/kg IV) | Cl/F_obs ([9]; plasma, 15 mg/kg IV) | MRT ([9]; plasma, 15 mg/kg IV) | Vz/F_obs ([9]; plasma, 15 mg/kg IV) | C0 [9, 11] | t1/2 (plasma half-life) [9, 11] | AUC0-t ([9]; plasma, 15 mg/kg PO) | also measured |
| --- | --- | --- | --- | --- | --- | --- | --- | --- | --- | --- | --- | --- | --- | --- | --- | --- | --- | --- | --- | --- | --- |
| Cc1ccc2c(C)c3c(c(O)c2c1O)C(=O)C1(O)C(=O)C(C(N)=O)=C(O)C(N)C1C3 (stereo not drawn) [CDCHD, 2-carboxamido-2-deacetyl-chelocardin] | 8 µg/mL (≈ 19.4 µM) | 8 µg/mL (≈ 19.4 µM) | 2 to 4 µg/mL | 1 µg/mL (≈ 2.42 µM) | 2 µg/ml and ~ 2 µg/ml | 2 µg/mL (≈ 4.85 µM) | 16 µg/mL (≈ 38.8 µM) | 8 µg/mL (≈ 19.4 µM) | This was not the case for CDCHD | found at high concentrations | 6% and 5.9% | 24% and 23.5% | 13,229.0 ± 1,147.2 ng/mL*h | around 1.3 µg/mL | 16.0 ± 1.4 mL/min/kg | 33.4 ± 8.0 h | 33.4 ± 6.1 L/kg | 1,336.4 ± 523.5 ng/mL | 24.3 ± 5.2 h | 780.9 ± 187.8 ng·h/mL | plasma concentrations of CDCHD relative to the active CHD ([9]; 15 mg/kg IV, time points > 24 hours, higher than active CHD): 10 fold; Cl/F_obs ([9]; plasma, 15 mg/kg PO): 294.3 ± 99.2 mL/min/kg; MRT ([9]; plasma, 15 mg/kg PO): 27.9 ± 7.1 h; Tmax ([9]; plasma, 15 mg/kg PO): 7.3 ± 1.6 h; Vz/F_obs ([9]; plasma, 15 mg/kg PO): 394.5 ± 122.6 L/kg; AUC0-t ([9]; plasma, 15 mg/kg SC): 3,109.3 ± 592.0 ng/mL*h; Cl/F_obs ([9]; plasma, 15 mg/kg SC): 34.5 mL/min/kg; MRT ([9]; plasma, 15 mg/kg SC): 57.3 h; Vz/F_obs ([9]; plasma, 15 mg/kg SC): 119.2 L/kg; Cmax ([9]; plasma, 15 mg/kg SC, 15 mg/kg): 171 ng/mL and 171.7 ± 17.7 ng/mL; plasma levels at 30 mg/kg IV compared with 15 mg/kg IV [9]: increased plasma levels (by a factor of more than two); urine levels at 30 mg/kg IV compared with 15 mg/kg IV [9]: in a similar range; histopathological examination of liver [10]: sporadic extramedullary erythropoiesis and thrombopoiesis; also recorded: a moderate reduction of glycogen, moderate anisokaryosis, and a moderate amount of double-nucleated cells; kidney tissue discoloration [10]: yellow tissue discoloration; overall acute toxicity assessment [10]: no immediate toxicity red flags |
| CC(=O)C1=C(O)[C@H](N)[C@@H]2Cc3c(c(O)c4c(O)c(C)ccc4c3C)C(=O)[C@]2(O)C1=O [CHD, chelocardin] | 16 µg/mL (≈ 38.9 µM) | 32 µg/mL (≈ 77.8 µM) | 2 µg/mL (≈ 4.86 µM) | 2 to 4 µg/mL | 2 µg/ml and ~ 2 µg/ml | 4 µg/mL (≈ 9.72 µM) | > 64 µg/mL | 16 µg/mL (≈ 38.9 µM) | epimerization was also observed for CHD in plasma and to a lower extent in urine | already declined | 24% and 24.2% | 90% and 90.2% | 31,550.8 ± 2,722.6 ng/mL*h | more than 4 µg/mL | 7.9 ± 0.6 mL/min/kg | 8.5 ± 0.2 h | 5.6 ± 0.5 L/kg | 4,234.3 ± 1,737.1 ng/mL | 8.2 ± 0.3 h | 7,636.3 ± 840.7 ng/mL*h | Cmax of CHD relative to CDCHD ([9]; 15 mg/kg PO, higher than CDCHD): more than 15 times; plasma levels of CHD relative to CDCHD ([9]; 15 mg/kg SC, higher than CDCHD): around 10 fold; Cl/F_obs ([9]; plasma, 15 mg/kg PO): 31.0 ± 4.3 mL/min/kg; Cmax ([9]; plasma, 15 mg/kg PO): 460.5 ± 58.6 ng/mL; MRT ([9]; plasma, 15 mg/kg PO): 19.1 ± 4.1 h; Tmax ([9]; plasma, 15 mg/kg PO): 3.3 ± 1.2 h; Vz/F_obs ([9]; plasma, 15 mg/kg PO): 55.5 ± 14.5 L/kg; AUC0-t ([9]; plasma, 15 mg/kg SC): 28,457.0 ± 4,506.2 ng/mL*h; Cl/F_obs ([9]; plasma, 15 mg/kg SC): 8.1 ± 1.1 mL/min/kg; Cmax ([9]; plasma, 15 mg/kg SC): 2,109.3 ± 601.9 ng/mL; MRT ([9]; plasma, 15 mg/kg SC): 9.7 ± 1.8 h; Tmax ([9]; plasma, 15 mg/kg SC): 4.0 ± 0.0 h; Vz/F_obs ([9]; plasma, 15 mg/kg SC): 4.8 ± 1.5 L/kg; Cmax ([9]; plasma, 15 mg/kg SC (text)): around 2.1 µg/mL; plasma levels at 30 mg/kg IV compared with 15 mg/kg IV [9]: in a similar range as for the 15 mg/kg IV dose; urine levels at 30 mg/kg IV compared with 15 mg/kg IV [9]: increased urine levels; AUC of CHD relative to CDCHD ([9]; plasma, higher than CDCHD, stated in the 15 mg/kg SC paragraph): 3 times; histopathological examination of liver [10]: sporadic extramedullary erythropoiesis and thrombopoiesis; kidney tissue discoloration [10]: yellow tissue discoloration; overall acute toxicity assessment [10]: no immediate toxicity red flags |
